Columns and labels:
Histamine H3 receptor [1] = target: T1, Histamine H3 receptor (Homo sapiens, UniProt Q9Y5N1); test: Displacement of [3H]NAMH from human full length histamine H3 receptor expressed in rat C6 cells; assay type: cell-based
Histamine H3 receptor [2] = target: Histamine H3 receptor (Rattus norvegicus, UniProt Q9QYN8); test: Displacement of [3H]NAMH from histamine H3 receptor in rat cortex; conditions: read-out: Ki
Histamine H1 receptor = Histamine H1 receptor (Homo sapiens, UniProt P35367); test: Displacement of [3H]mepyramine from human histamine H1 receptor; conditions: read-out: Ki
Histamine H2 receptor = Histamine H2 receptor (Homo sapiens, UniProt P25021); test: Displacement of [3H]tiotidine from human histamine H2 receptor; conditions: read-out: Ki
Histamine H4 receptor = Histamine H4 receptor (Homo sapiens, UniProt Q9H3N8); test: Displacement of [3H]histamine from human histamine H4 receptor expressed in HEK cells; assay type: cell-based, HEK293; conditions: read-out: Ki
[3] = Oral bioavailability in rat; assay type: ADME, organism-based; conditions: in vivo
[4] = Binding affinity at dopamine receptor
[5] = target: T2, Muscarinic acetylcholine receptor M1 (Homo sapiens, UniProt P11229); test: Binding affinity at muscarinic M1 receptor
T2 sequence (P11229 whole entry): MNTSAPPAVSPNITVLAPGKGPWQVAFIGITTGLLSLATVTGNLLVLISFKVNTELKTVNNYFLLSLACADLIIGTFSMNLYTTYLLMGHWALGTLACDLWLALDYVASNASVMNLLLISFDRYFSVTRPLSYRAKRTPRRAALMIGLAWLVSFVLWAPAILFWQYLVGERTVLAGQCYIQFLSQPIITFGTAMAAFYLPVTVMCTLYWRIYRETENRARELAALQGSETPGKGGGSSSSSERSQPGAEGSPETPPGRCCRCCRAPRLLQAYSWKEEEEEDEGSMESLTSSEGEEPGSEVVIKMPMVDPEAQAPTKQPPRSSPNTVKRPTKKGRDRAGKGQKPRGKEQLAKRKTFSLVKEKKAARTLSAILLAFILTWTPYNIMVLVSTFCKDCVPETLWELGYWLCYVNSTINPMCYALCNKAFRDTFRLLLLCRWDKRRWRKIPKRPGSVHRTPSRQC

Glucocorticoid receptor = target: T3, Glucocorticoid receptor (Homo sapiens, UniProt P04150); test: Binding affinity at glucocorticoid receptor
T3 sequence (P04150 whole entry): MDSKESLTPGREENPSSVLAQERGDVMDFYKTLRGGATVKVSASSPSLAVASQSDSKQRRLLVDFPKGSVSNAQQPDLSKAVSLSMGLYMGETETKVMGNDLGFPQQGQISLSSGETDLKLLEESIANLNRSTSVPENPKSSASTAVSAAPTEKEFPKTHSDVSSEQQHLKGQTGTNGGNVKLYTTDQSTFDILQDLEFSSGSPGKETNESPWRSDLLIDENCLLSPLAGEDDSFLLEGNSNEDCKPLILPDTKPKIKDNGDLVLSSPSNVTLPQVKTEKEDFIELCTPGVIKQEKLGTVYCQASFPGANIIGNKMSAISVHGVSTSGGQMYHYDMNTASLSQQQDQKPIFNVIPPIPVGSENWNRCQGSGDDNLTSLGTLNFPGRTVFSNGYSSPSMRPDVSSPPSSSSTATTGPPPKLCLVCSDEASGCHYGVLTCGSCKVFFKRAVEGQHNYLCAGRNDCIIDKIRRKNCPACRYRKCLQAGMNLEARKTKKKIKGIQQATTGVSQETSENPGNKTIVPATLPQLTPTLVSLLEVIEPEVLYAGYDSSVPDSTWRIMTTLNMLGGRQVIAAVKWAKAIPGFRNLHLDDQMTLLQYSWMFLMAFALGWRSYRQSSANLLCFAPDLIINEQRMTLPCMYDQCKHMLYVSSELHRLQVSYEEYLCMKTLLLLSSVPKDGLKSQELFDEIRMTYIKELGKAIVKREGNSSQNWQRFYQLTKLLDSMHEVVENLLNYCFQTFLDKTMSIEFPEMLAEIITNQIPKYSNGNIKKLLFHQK

Androgen receptor = target: T4, Androgen receptor (Homo sapiens, UniProt P10275); test: Binding affinity at androgen receptor
T4 sequence (P10275 whole entry): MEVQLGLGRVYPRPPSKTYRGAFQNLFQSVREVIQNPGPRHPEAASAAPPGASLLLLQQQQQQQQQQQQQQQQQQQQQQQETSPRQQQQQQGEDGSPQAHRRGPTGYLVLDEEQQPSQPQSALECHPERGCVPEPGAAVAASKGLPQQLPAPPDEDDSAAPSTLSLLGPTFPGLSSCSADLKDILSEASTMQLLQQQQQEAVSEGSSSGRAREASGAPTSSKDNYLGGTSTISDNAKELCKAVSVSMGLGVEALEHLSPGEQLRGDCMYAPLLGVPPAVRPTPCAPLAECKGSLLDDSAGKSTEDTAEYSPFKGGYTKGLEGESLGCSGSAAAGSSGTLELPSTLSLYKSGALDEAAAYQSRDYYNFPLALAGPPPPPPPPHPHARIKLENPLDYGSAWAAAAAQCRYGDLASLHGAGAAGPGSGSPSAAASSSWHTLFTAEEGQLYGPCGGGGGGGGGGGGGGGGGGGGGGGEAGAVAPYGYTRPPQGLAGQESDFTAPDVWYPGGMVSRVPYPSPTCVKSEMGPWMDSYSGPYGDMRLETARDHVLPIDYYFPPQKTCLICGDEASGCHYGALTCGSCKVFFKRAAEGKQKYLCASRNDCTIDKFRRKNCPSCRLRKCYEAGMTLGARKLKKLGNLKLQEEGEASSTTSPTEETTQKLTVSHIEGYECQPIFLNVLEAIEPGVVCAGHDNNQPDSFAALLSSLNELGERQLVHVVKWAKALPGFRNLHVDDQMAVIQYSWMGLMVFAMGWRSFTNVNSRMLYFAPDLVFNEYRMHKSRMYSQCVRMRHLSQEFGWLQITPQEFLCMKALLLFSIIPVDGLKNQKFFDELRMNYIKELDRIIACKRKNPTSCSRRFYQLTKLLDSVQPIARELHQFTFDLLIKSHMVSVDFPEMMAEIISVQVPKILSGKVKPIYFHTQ

Phospholipidosis = test: In vitro phospholipidosis index at 6.25 uM compared to amiodarone at 10 uM; assay type: ADME, cell-based, Hepatocyte; conditions: hepatocytes
Histamine H3 receptor [6] = target: T1, Histamine H3 receptor; test: Antagonist activity at H3 receptor assessed as inhibition of forskolin-induced cAMP release by SPA; assay type: functional

T1 sequence (Q9Y5N1 whole entry): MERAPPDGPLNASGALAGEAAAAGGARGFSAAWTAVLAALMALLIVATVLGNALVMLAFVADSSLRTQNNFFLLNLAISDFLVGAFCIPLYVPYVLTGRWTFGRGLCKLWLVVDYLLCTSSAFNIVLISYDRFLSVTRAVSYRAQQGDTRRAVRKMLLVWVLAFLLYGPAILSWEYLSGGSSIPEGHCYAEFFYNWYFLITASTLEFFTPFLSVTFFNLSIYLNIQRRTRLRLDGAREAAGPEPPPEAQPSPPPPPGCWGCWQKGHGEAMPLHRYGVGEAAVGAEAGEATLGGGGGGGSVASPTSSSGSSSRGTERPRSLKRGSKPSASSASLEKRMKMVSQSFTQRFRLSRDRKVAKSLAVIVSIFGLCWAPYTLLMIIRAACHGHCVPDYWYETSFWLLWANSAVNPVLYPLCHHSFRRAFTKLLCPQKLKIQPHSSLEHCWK
Histamine H3 receptor (Rattus norvegicus, UniProt Q9QYN8), sequence (Q9QYN8 whole entry): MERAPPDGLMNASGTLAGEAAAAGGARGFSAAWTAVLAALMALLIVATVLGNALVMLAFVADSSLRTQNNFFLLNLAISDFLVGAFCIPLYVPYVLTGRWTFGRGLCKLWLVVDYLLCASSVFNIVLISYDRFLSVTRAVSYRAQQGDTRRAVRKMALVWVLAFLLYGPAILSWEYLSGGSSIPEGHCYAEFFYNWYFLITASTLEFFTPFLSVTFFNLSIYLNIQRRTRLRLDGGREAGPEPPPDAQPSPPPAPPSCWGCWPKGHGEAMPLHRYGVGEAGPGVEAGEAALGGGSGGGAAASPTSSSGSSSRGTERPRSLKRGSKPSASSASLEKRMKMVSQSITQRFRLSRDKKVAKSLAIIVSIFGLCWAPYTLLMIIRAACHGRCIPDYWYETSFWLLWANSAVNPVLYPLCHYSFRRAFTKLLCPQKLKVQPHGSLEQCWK
Histamine H4 receptor, sequence (Q9H3N8 whole entry): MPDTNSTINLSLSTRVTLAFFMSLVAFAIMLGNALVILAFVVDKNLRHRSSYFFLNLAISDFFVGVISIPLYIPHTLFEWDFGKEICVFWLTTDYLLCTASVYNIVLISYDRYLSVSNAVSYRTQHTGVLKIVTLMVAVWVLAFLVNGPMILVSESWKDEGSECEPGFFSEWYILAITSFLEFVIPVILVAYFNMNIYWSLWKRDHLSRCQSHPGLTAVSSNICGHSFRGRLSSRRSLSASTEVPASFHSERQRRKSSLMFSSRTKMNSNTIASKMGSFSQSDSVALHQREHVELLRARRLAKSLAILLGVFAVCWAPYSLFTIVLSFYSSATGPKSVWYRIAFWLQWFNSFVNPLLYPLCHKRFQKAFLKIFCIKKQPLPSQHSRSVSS
Histamine H1 receptor, sequence (P35367 whole entry): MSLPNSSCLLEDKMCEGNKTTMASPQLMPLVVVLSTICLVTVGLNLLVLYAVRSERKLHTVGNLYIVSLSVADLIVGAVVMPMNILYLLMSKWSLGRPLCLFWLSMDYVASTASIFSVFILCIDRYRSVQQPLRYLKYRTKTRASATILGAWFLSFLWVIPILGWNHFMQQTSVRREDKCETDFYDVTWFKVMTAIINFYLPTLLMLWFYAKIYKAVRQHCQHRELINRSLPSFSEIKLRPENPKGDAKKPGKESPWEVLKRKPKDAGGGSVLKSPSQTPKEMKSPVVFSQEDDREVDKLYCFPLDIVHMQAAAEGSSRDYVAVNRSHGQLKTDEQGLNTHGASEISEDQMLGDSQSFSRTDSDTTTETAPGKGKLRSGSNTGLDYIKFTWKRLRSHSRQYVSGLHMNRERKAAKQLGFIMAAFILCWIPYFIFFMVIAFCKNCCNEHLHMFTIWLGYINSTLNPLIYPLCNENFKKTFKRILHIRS
Histamine H2 receptor, sequence (P25021 whole entry): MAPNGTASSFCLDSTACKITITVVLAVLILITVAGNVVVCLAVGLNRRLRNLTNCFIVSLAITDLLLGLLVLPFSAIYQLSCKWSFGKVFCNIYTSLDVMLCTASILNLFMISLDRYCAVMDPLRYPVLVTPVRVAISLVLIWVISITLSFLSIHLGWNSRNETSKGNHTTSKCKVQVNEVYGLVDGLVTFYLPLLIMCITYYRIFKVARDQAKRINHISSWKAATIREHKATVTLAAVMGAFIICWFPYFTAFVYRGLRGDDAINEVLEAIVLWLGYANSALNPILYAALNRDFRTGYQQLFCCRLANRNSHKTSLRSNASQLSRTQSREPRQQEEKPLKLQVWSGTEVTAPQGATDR

## CN[C@@H](C(=O)N(C)[C@H]1CC[C@@]2(C)C(=CC[C@H]3[C@@H]4CC[C@@H]5[C@H](C)N(C)C[C@@]54CC[C@@H]32)C1)C(C)C
Histamine H3 receptor [1]
  Ki: 0.21 nM
Histamine H3 receptor [2]
  Ki: 2.57 nM
Histamine H1 receptor
  Ki: > 10000 nM
Histamine H2 receptor
  Ki: > 10000 nM
Histamine H4 receptor
  Ki: > 10000 nM
[3]
  bioavailability: 65%
[4]
  Ki: > 10000 nM
[5]
  Ki: 11 nM
Glucocorticoid receptor
  Ki: > 30000 nM
Androgen receptor
  Ki: > 30000 nM
Phospholipidosis
  Phospholipidosis_index: 0.42
Histamine H3 receptor [6]
  Kb: 4 nM
